# Laboratory results: PMC10819888, “Benzimidazole-Based Derivatives as Apoptotic Antiproliferative Agents: Design, Synthesis, Docking, and Mechanistic Studies” (Molecules, 2024)
# Where two headings read alike, the source gives them in different places.
# What was measured:
# CCRF-CEM = test: NCI-60 five-dose assay; format: cell-based, human; details: CCRF-CEM (Leukemia), 48 h
# NCI-H226 = test: NCI-60 five-dose assay; format: cell-based, human; details: NCI-H226 (Non-Small Cell Lung Cancer), 48 h
# NCI-H322M = test: NCI-60 five-dose assay; format: cell-based, human; details: NCI-H322M (Non-Small Cell Lung Cancer), 48 h
# NCI-H522 = test: NCI-60 five-dose assay; format: cell-based, human; details: NCI-H522 (Non-Small Cell Lung Cancer), 48 h
# HCT-116 = test: NCI-60 five-dose assay; format: cell-based, human; details: HCT-116 (Colon Cancer), 48 h
# HT29 = test: NCI-60 five-dose assay; format: cell-based, human; details: HT29 (Colon Cancer), 48 h
# SF-539 = test: NCI-60 five-dose assay; format: cell-based, human; details: SF-539 (CNS Cancer), 48 h
# SNB-19 = test: NCI-60 five-dose assay; format: cell-based, human; details: SNB-19 (CNS Cancer), 48 h
# U251 = test: NCI-60 five-dose assay; format: cell-based, human; details: U251 (CNS Cancer), 48 h
# LOX IMVI = test: NCI-60 five-dose assay; format: cell-based, human; details: LOX IMVI (Melanoma), 48 h
# UACC-257 = test: NCI-60 five-dose assay; format: cell-based, human; details: UACC-257 (Melanoma), 48 h
# UACC-62 = test: NCI-60 five-dose assay; format: cell-based, human; details: UACC-62 (Melanoma), 48 h
# IGROV1 = test: NCI-60 five-dose assay; format: cell-based, human; details: IGROV1 (Ovarian Cancer), 48 h
# OVCAR-4 = test: NCI-60 five-dose assay; format: cell-based, human; details: OVCAR-4 (Ovarian Cancer), 48 h
# SK-OV-3 = test: NCI-60 five-dose assay; format: cell-based, human; details: SK-OV-3 (Ovarian Cancer), 48 h
# ACHN = test: NCI-60 five-dose assay; format: cell-based, human; details: ACHN (Renal Cancer), 48 h
# CAKI-1 = test: NCI-60 five-dose assay; format: cell-based, human; details: CAKI-1 (Renal Cancer), 48 h
# RXF 393 = test: NCI-60 five-dose assay; format: cell-based, human; details: RXF 393 (Renal Cancer), 48 h
# DU-145 = test: NCI-60 five-dose assay; format: cell-based, human; details: DU-145 (Prostate Cancer), 48 h
# BT-549 = test: NCI-60 five-dose assay; format: cell-based, human; details: BT-549 (Breast Cancer), 48 h
# T-47D = test: NCI-60 five-dose assay; format: cell-based, human; details: T-47D (Breast Cancer), 48 h
# Ovarian Cancer subpanel = test: NCI-60 five-dose assay, subpanel; format: cell-based, human
# Renal Cancer subpanel = test: NCI-60 five-dose assay, subpanel; format: cell-based, human
# Prostate Cancer subpanel = test: NCI-60 five-dose assay, subpanel; format: cell-based, human
# [1] = system: full panel of 60 human tumor cell lines; test: NCI-60 five-dose assay, full panel; format: cell-based
# [2] = Homo sapiens, read-out: GI50 Conc. per Cell Line
# [3] = Homo sapiens, read-out: LC50 (the source's name)
smiles,measurement,setting,value
"O=C(NN=Cc1ccc(Cl)cc1)c1ccc2[nH]c(-c3ccc(Cl)cc3)nc2c1 [Compound 4e, N′-(4-Chlorobenzylidene)-2-(4-chlorophenyl)-1H-benzimidazole-5-carbohydrazide]",TGI,CCRF-CEM,9.03 µM
same,GI50,CCRF-CEM; [2],1.43 µM
same,CC50,CCRF-CEM; [3],65.8 µM
same,GI50,NCI-H226; [2],1.77 µM
same,CC50,NCI-H226; [3],6.86 µM
same,TGI,NCI-H226,3.48 µM
same,GI50,NCI-H322M; [2],2.15 µM
same,CC50,NCI-H322M; [3],19.8 µM
same,TGI,NCI-H322M,5.26 µM
same,GI50,NCI-H522; [2],2.24 µM
same,CC50,NCI-H522; [3],77.9 µM
same,TGI,NCI-H522,5.85 µM
same,TGI,HCT-116,3.51 µM
same,GI50,HCT-116; [2],1.45 µM
same,CC50,HCT-116; [3],8.52 µM
same,TGI,HT29,5.47 µM
same,GI50,"HT29; Homo sapiens, HT-29, read-out: GI50 Conc. per Cell Line",1.97 µM
same,CC50,"HT29; Homo sapiens, HT-29, read-out: LC50 (the source's name)",44.1 µM
same,GI50,SF-539; [2],1.7 µM
same,CC50,SF-539; [3],5.93 µM
same,TGI,SF-539,3.17 µM
same,GI50,SNB-19; [2],2.34 µM
same,CC50,SNB-19; [3],13.3 µM
same,TGI,SNB-19,5.06 µM
same,GI50,"U251; Homo sapiens, U-251, read-out: GI50 Conc. per Cell Line",2.1 µM
same,CC50,"U251; Homo sapiens, U-251, read-out: LC50 (the source's name)",8.35 µM
same,TGI,U251,4.18 µM
same,GI50,LOX IMVI; [2],1.57 µM
same,CC50,LOX IMVI; [3],5.5 µM
same,TGI,LOX IMVI,2.94 µM
same,GI50,UACC-257; [2],2.14 µM
same,CC50,UACC-257; [3],11.6 µM
same,TGI,UACC-257,4.72 µM
same,GI50,UACC-62; [2],1.78 µM
same,CC50,UACC-62; [3],6.49 µM
same,TGI,UACC-62,3.40 µM
same,GI50,"IGROV1; Homo sapiens, IGROV-1, read-out: GI50 Conc. per Cell Line",1.5 µM
same,CC50,"IGROV1; Homo sapiens, IGROV-1, read-out: LC50 (the source's name)",5.92 µM
same,TGI,IGROV1,2.98 µM
same,GI50,OVCAR-4; [2],1.74 µM
same,CC50,OVCAR-4; [3],6.23 µM
same,TGI,OVCAR-4,3.29 µM
same,GI50,SK-OV-3; [2],1.79 µM
same,CC50,SK-OV-3; [3],11 µM
same,TGI,SK-OV-3,4.31 µM
same,TGI,ACHN,3.17 µM
same,GI50,ACHN; [2],1.73 µM
same,CC50,ACHN; [3],5.78 µM
same,TGI,CAKI-1,3.29 µM
same,GI50,CAKI-1; [2],1.7 µM
same,CC50,CAKI-1; [3],6.37 µM
same,GI50,RXF 393; [2],1.61 µM
same,CC50,RXF 393; [3],6.64 µM
same,TGI,RXF 393,3.27 µM
same,TGI,DU-145,3.44 µM
same,GI50,DU-145; [2],1.76 µM
same,CC50,DU-145; [3],6.7 µM
same,TGI,BT-549,2.13 µM
same,GI50,BT-549; [2],4.93 µM
same,CC50,BT-549; [3],75.8 µM
same,GI50,"T-47D; Homo sapiens, T47D, read-out: GI50 Conc. per Cell Line",1.79 µM
same,CC50,"T-47D; Homo sapiens, T47D, read-out: LC50 (the source's name)",8.21 µM
same,TGI,T-47D,3.83 µM
same,GI50,"Ovarian Cancer subpanel; Homo sapiens, Ovarian Cancer, average sensitivity of all subpanel cell lines, read-out: GI50 Subpanel MID b",1.81 µM
same,GI50 Selectivity Ratio (MID a/MID b),Ovarian Cancer subpanel; Ovarian Cancer subpanel,0.99
same,GI50,"Renal Cancer subpanel; Homo sapiens, Renal Cancer, average sensitivity of all subpanel cell lines, read-out: GI50 Subpanel MID b",1.77 µM
same,GI50 Selectivity Ratio (MID a/MID b),Renal Cancer subpanel; Renal Cancer subpanel,1.01
same,GI50,"Prostate Cancer subpanel; Homo sapiens, Prostate Cancer, average sensitivity of all subpanel cell lines, read-out: GI50 Subpanel MID b",1.65 µM
same,GI50 Selectivity Ratio (MID a/MID b),Prostate Cancer subpanel; Prostate Cancer subpanel,1.08
same,GI50,"[1]; average sensitivity of all cell lines, read-out: MID a (GI50)",1.79 µM
same,LC50,"[1]; five-dose assay, range over cell lines",5.73 to 77.9 µM
same,GI50,"[1]; five-dose assay, range over cell lines, read-out: GI50 range over the examined cell lines",0.97 to 4.93 µM
